Measured values: patent US20060148683A1, “Detection and treatment of intravascular lesions” (priority 2001, published 2006)
Read-outs that look alike come from different tables or passages of the source. Starred links: 1 amine or outer side, 2 acyl side, 3 side chain; linkers in the order of their positions; H or OH if unused. Positions of bridges follow the written chain, without caps; N, C: chain ends. Non-standard residues stand in square brackets, D forms with d. Residues, ends and D or L forms follow the SMILES beside them. ξ: configuration not given here. *: point of attachment. X1 = CN(C)c1ccc2c(-c3cc(C(=O)*)ccc3C(=O)[O-])c3ccc(=[N+](C)C)cc-3oc2c1; NH(Fluorescein-5-yl) = O=C1OC2(c3ccc(O)cc3Oc3cc(O)ccc32)c2ccc(N*)cc21; Tyr(3-I) = N[C@@H](Cc1ccc(O)c(I)c1)C(=O)O; Hyp = O=C(O)[C@@H]1C[C@@H](O)CN1; Ile(3ξ) = CCC(C)[C@H](N)C(=O)O; CO = O=C([*:1])[*:2]; Ahx = NCCCCCC(=O)O

Key:
Assay type in all cases: binding
DD(E) fragment of fibrin = biological target: T1, DD(E) fragment of fibrin (Homo sapiens, UniProt P02671+P02675+P02679, DEL433-453); experiment: Dissociation constant (Kd) of optical agent for DD(E) fragment of fibrin
T1 construct: complex of the crosslinked D domains of adjacent fibrin monomers with the central E domain of fibrin
Excerpt: Optical agents of the invention include an OD and a FBM covalently bound to each other, either directly or via a linker (OD-L-FBM). The FBM can be a small molecule or a peptide. As used herein, the term “peptide” refers to a chain of amino acids that is about 2 to about 75 amino acids in length (e.g., 3 to 50 amino acids). Affinity of a peptide for fibrin can be expressed in terms of its dissociation constant (Kd), which is the equilibrium constant for the dissociation reaction of the peptide from the DD(E) fragment of fibrin. The term “DD(E) fragment of fibrin” refers to a fibrin subcomponent generated by proteolytic degradation of fibrin with plasmin or trypsin. The DD(E) fragment is a complex of the crosslinked D domains of adjacent fibrin monomers with the central E domain of fibrin (See, for example, Spraggon et al., Nature 389:455462 (1997)). Since DD(E) is a product resulting from the proteolysis of fibrin, one of skill in the art will understand that there may be some slight heterogeneity in its composition. The DD(E) fragment can be biotinylated and immobilized via avidin to a solid substrate (e.g., a multi-well plate). Peptides can be incubated with the immobilized DD(E) fragment in a suitable buffer and binding detected using known methodology. Methods for determining the dissociation constant of the peptide for DD(E) are set forth in WO 01/09188.
As a result of the FBM having affinity for fibrin, the optical agent also has affinity for fibrin. The term “affinity” refers to the capacity of the optical agent to be taken up by, retained by, or bound to the fibrin in the lesion. The affinity of an optical agent can be expressed in terms of its Kd, which is the equilibrium constant for the dissociation reaction of the optical agent from fibrin, and determined as discussed above for the peptide. The dissociation constant of the optical agent for DD(E) can have a value less than about 10 μM (e.g., 0.1 μM to 10 μM). In one embodiment, the dissociation constant value is less than about 5 μM. In another embodiment, the dissociation constant value is less than about 1 μM. The dissociation constant also may have a value less than about 0.3 μM (e.g., 0.2 μM).
In the methods of the present invention, the optical agent forms a fibrin-optical agent complex at the site of the lesion. The ability of the optical agent to form a fibrin-optical agent complex may be measured by examining the optical agent's dissociation constant (Kd) for a DD(E) fragment of fibrin as discussed above.

fibrin = biological target: T2, fibrin (Homo sapiens, UniProt P02671+P02675+P02679); experiment: Confocal fluorescence imaging of fibrin-optical agent complex on lesion formed by cross-linking fibrinogen with thrombin; conditions: 0.6 μM optical agent, 0.1 mg/mL fibrinogen, confocal fluorescence imaging ex 555 nm, em 575 nm
T2 sequence (P02671 36-629 limits assumed): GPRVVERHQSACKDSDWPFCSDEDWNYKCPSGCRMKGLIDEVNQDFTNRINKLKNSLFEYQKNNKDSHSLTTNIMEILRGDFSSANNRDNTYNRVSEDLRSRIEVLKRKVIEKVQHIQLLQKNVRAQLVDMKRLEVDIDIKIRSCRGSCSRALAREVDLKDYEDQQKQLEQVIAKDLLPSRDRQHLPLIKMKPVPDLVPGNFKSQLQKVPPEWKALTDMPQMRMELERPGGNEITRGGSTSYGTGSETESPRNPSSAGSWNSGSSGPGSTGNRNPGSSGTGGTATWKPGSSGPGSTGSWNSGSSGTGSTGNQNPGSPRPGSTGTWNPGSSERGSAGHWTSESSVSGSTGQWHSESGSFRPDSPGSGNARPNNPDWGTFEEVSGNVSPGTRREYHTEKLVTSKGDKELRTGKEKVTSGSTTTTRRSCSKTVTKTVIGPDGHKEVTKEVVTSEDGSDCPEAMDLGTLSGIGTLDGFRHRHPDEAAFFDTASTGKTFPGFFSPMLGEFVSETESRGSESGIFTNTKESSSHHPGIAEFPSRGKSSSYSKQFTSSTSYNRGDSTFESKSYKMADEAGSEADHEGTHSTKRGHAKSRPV
T2 sequence (P02675 45-491 limits assumed): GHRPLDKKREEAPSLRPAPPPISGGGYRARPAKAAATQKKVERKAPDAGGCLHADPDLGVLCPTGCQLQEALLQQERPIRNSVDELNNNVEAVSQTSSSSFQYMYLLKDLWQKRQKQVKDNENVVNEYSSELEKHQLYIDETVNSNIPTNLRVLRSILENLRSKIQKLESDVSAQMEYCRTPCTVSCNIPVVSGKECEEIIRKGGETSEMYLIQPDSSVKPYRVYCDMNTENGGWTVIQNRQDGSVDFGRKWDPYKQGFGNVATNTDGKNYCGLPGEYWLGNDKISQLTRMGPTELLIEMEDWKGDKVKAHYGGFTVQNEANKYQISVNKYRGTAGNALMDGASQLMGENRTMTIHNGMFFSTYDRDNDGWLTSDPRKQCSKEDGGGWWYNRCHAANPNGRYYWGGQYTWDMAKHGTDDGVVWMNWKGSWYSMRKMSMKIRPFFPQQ
T2 sequence (P02679 27-437 isoform P02679-2 limits assumed): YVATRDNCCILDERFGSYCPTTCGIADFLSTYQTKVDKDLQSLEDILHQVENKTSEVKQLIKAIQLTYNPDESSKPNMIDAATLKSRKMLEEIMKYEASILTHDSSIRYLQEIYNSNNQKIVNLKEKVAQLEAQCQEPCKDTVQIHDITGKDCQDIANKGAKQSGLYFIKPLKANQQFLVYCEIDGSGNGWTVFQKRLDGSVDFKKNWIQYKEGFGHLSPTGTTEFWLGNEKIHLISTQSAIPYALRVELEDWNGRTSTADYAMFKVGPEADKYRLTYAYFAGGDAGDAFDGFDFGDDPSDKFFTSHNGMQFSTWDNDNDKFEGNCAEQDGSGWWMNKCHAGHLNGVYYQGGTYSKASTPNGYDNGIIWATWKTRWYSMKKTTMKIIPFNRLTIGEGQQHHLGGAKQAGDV
Method: (§1) Site 2/fibrin: 0.1 mg/mL of fibrinogen was mixed with 0.6 μM of an optical agent (Structure XI, see FIG. 3) comprising tetramethylrhodamine as the optical dye. The mixture was coated (approximately 4-20 μL) onto a glass slide and cross-linking of fibrinogen was initiated with 1.3 μg/L of thrombin. Clotting occurred in approximately 15 sec. The slide was imaged using confocal fluorescence imaging (ex 555 nm, em 575 nm).
as §1, with “1/fibrin:” for “2/fibrin:”, “X)” for “XI, see FIG. 3)”, “about 15-20 seconds.” for “approximately 15 sec.”

[1] = biological target: T3, fibrin on a lesion (plasma clot) (Homo sapiens, UniProt P02671+P02675+P02679); experiment: Confocal fluorescence imaging of fibrin-optical agent complex on plasma clot formed by clotting human plasma with thrombin; conditions: 0.6 μM optical agent, platelet rich human plasma, confocal fluorescence imaging ex 555 nm, em 575 nm
T3 construct: from tissue; host or cells: platelet rich human plasma
T3 sequence (P02671 36-629 limits assumed): T2 sequence (P02671 36-629 limits assumed)
T3 sequence (P02675 45-491 limits assumed): T2 sequence (P02675 45-491 limits assumed)
T3 sequence (P02679 27-437 isoform P02679-2 limits assumed): T2 sequence (P02679 27-437 isoform P02679-2 limits assumed)
Method: Site 2/plasma clot: human plasma (platelet rich human plasma) was mixed with 0.6 μM of an optical agent (Structure XI, see FIG. 3) comprising tetramethylrhodamine as the optical dye. The mixture was coated onto a glass slide (approximately 4-20 μL) and clotting of plasma was initiated with 1.3 μg/L of thrombin. Clotting occurred within 15 sec. The slide was imaged using confocal fluorescence imaging (ex 555 nm, em 575 nm).

[2] = 24° C., read-out: Kd (μM) vs. DD(E) @ 24° C.

SMILES | Kd (DD(E) fragment of fibrin; [2]) | Detection of fibrin based on signal of fibrin-optical agent complexes (fibrin) | Detection of fibrin based on signal of fibrin-optical agent complexes [1] | Kd (DD(E) fragment of fibrin; read-out: Kd vs. DD(E))
CCC(C)[C@H](NC(=O)[C@H](Cc1c[nH]c2ccccc12)NC(=O)[C@@H]1CSSC[C@H](NC(=O)[C@H](CCC(=O)O)NC(=O)[C@H](Cc2c[nH]c3ccccc23)NC(=O)[C@H](CCC(N)=O)NC(=O)CCCCCNC(=O)c2ccc(C(=O)[O-])c(-c3c4ccc(=[N+](C)C)cc-4oc4cc(N(C)C)ccc34)c2)C(=O)N2CCC[C@H]2C(=O)N[C@@H](Cc2ccc(O)cc2)C(=O)NCC(=O)N[C@@H](CC(C)C)C(=O)N1)C(=O)N[C@@H](CCC(N)=O)C(N)=O (some centres unmarked) [Structure XI] ({X1-Ahx}-QWECPYGLCW[Ile(3ξ)]Q-NH2; disulfide 4-9) | 0.09 µM | Fibrin was detected | Fibrin was detected | –
CC[C@H](C)[C@H](NC(=O)[C@H](Cc1c[nH]cn1)NC(=O)[C@@H]1CSSC[C@H](NC(=O)[C@H](Cc2c[nH]cn2)NC(=O)[C@H](Cc2ccccc2)NC(=O)CNC(=O)CCCCCNC(=O)Nc2ccc3c(c2)C(=O)OC32c3ccc(O)cc3Oc3cc(O)ccc32)C(=O)N2C[C@H](O)C[C@H]2C(=O)N[C@@H](Cc2ccc(O)c(I)c2)C(=O)N[C@@H](CC(=O)O)C(=O)N[C@@H](CC(C)C)C(=O)N1)C(=O)N[C@@H](CC(C)C)C(N)=O [Structure III] ({NH(Fluorescein-5-yl)-CO-Ahx}-GFHC[Hyp][Tyr(3-I)]DLCHIL-NH2; disulfide 4-9) | 0.1 µM | – | – | –
COc1ccc2c(CC(=O)NCCCCCC(=O)N[C@@H](CC(C)C)C(=O)N3CCC[C@H]3C(=O)N[C@H]3CSSC[C@@H](C(=O)N[C@@H](CC(C)C)C(=O)N[C@@H](CC(=O)O)C(N)=O)NC(=O)[C@H](C(C)O)NC(=O)CNC(=O)[C@H](Cc4ccc(O)cc4)NC(=O)[C@H](Cc4ccc(O)cc4)NC(=O)[C@H](CC(=O)O)NC3=O)cc(=O)oc2c1 (some centres unmarked) [Structure XII] | – | – | – | 6.6 µM
